The values below come from patent US12295937B2, “Psychoactive medicines and their use for treating psychiatric and neurological conditions and disorders” (Transcend Therapeutics, Inc., priority 2021, dated 2025).

A short description of data set [1]: Rat Forced Swim Test (FST). The class given is in vivo. The conditions noted are these: for Reduction in immobility: single dose 30 min before test. The text has this: The Forced Swim Test (FST) is a classic, and the most used preclinical behavioral assay to screen compounds with antidepressant-like activity and has high predictive and face validity (Porsolt et al. (1977) Nature 266:730; Borsini and Meli (1988) Psychopharmacology 94:147). The premise of the FST is that when rats are placed into a cylinder filled with water, they will initially try to escape, but over time will become immobile. This increased immobility reflects behavioral despair, modeling a depressive-like state.
Forced Swim Test (EST): In the FST trial, rats were placed in a circular plexiglass container filled with water, with no means of escape. Water temperature was maintained at 22-25° C. and changed for every animal. After an acclimation period, rats were timed for inactivity (failure to struggle), activity, swim time and climbing time. Day 1 consisted of a 15 min acclimation trial, and Day 2 (24 h later) consisted of the 5 min test. A time sampling procedure was employed where animals were observed every 5 sec and scored for immobility, swimming, or climbing. Fluoxetine (10 mg/kg, IP, Sigma Aldrich) or 0.9% sterile saline vehicle (vehicle 3× group) were administered 23.5, 5, and 1 h before testing in the FST. […] The experimenter was blinded to treatment.
Forced Swim Test: In the FST trial, rats were placed in a circular plexiglass container filled with water, with no means of escape. Water temperature was maintained at 22-25° C. and changed for every animal. After an acclimation period, rats were timed for inactivity (failure to struggle), activity, swim time and climbing time. Day 1 consisted of a 15 min acclimation trial, and Day 2 (24 h later) consisted of the 5 min test. A time sampling procedure was employed where animals were observed every 5 sec and scored for immobility, swimming, or climbing. Fluoxetine (10 mg/kg, IP, Sigma Aldrich) or 0.9% sterile saline vehicle (vehicle 3× group) were administered 23.5, 5, and 1 h before testing in the FST. 2C-B (2.5, 10, or 20 mg/kg, IP, Cayman Chemical) or 0.9% saline vehicle (vehicle 1× group) were administered 30 min prior to FST testing. The experimenter was blinded to treatment.
Drug Treatment: Fluoxetine (10 mg/kg, IP, Sigma Aldrich) or 0.9% sterile saline vehicle were administered 23.5, 5, and 1 h before testing in the FST. […] Control animals received fluoxetine alone, methylone alone, or saline vehicle.
Forced Swim Test: In the FST trial, rats were placed in a circular plexiglass container filled with water, with no means of escape. Water temperature was maintained at 22-25° C. and changed for every animal. After an acclimation period, rats were timed for inactivity (failure to struggle), activity, swim time and climbing time. The experimenter and scorer were blind to treatment group. Day 1 consisted of a 15 min acclimation trial, and Day 2 (24 h later) consisted of the 5 min test. A time sampling procedure was employed where animals were observed every 5 sec and scored for immobility, swimming, or climbing.
The FST was performed and scored by an experimenter blind to treatment group according to standard protocols and based on a “modified FST” procedure (Slattery and Cryan (2012) Nat Protoc, 7:1009). Briefly, rats were placed in a circular plexiglass container (29.2 cm diameter, 49.5 cm height) filled with water to a depth of 30 cm so rats could not support themselves by touching the bottom of the tank. Water was maintained at 22-25° C. and was changed for every animal. Day 1 (Training) consisted of a 15 min acclimation trial, and Day 2 (Testing, 24 h later) consisted of the 5 min test. A time sampling procedure was employed where animals were observed every 5 seconds for the duration of the test session (60 counts or 5 minutes) and scored for immobility (defined as the failure to struggle), swimming (defined as a circular movement around the tank), or climbing (defined as an upwards escape behavior). […]

For data set [2] the following is noted: rats, intraperitoneal; cited from earlier work.
For data set [3], the target named is NET (Rattus norvegicus, UniProt Q63380). Put plainly: [3H]NE uptake inhibition in rat brain synaptosomes. The conditions noted are these: read-out: Reuptake inhibition: IC50; rat brain synaptosomes.
The target in data set [4] is DAT (Rattus norvegicus, UniProt P23977). Briefly: [3H]DA release from rat brain synaptosomes. Particulars: rat brain synaptosomes; read-out: Neurotransmitter release: EC50. Also on record: from tissue; synaptosomes for uptake and release. Format: biochemical. As for the experimental part:
Test compounds and synaptosomes were prepared as described for uptake inhibition assays. Synaptosomes treated with [^3H]5-HT, [^3H]DA or [^3H]NE were loaded onto filter chambers containing GF/C filters and placed in a superfusion system. Oxygenated Krebs buffer was perfused through the chambers at a rate of 1.5 mL/minute at 35° C. using either an 8-channel or a 12-channel peristaltic pump. Trapped air bubbles were removed from the filters prior to collecting fractions to ensure an even flow over the synaptosomal bed. After a superfusion period of 45 minutes, 2 basal fractions were collected followed by 6 fractions following the addition of the test drug. […] Scintillation cocktail was added, and the filters counted to determine residual radioactivity. Drug-evoked release of neurotransmitter was calculated by subtracting the average of the two basal fractions (collected prior to the drug addition), from the four fractions collected in the presence of drug. The drug-evoked release was then expressed as a percentage of the basal release. Potassium-evoked release was calculated by subtracting the average of two fractions collected prior to the addition of high KCl buffer from that in the two fractions following addition of high KCl buffer. Potassium-stimulated release was calculated as a percentage of basal release. […]

The target in data set [5] is 168 GPCRs (Homo sapiens, UniProt Q16602). Put plainly: β-arrestin GPCR screen (PathHunter / GPCRmax), agonist mode. The class given is cell-based. Also on record: host or cells: PathHunter cell lines. The conditions noted are these: CALCRL-RAMP3, 1 uM. As for the experimental part:
For agonist determination, cells were incubated with sample to induce response. […] Vehicle concentration was 1%.

Sequence of NET (Q63380 1-617): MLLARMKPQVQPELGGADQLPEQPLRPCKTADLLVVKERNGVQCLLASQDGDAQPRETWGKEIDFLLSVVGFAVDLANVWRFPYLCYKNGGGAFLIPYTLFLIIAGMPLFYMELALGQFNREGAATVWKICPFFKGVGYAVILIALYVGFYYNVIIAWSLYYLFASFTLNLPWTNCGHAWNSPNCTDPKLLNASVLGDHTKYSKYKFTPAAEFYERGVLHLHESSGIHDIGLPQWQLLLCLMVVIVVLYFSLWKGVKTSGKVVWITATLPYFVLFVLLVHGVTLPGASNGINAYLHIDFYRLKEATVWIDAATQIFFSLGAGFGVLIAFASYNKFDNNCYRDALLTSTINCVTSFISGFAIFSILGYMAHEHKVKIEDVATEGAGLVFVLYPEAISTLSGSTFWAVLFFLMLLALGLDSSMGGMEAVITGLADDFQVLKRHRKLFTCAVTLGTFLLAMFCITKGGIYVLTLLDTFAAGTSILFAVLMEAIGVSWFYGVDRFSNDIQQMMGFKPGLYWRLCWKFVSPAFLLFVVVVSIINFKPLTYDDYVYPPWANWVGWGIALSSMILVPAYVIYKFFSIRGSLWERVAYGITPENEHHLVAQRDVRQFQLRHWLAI
Sequence of DAT (P23977 whole entry, the tested form may be a part): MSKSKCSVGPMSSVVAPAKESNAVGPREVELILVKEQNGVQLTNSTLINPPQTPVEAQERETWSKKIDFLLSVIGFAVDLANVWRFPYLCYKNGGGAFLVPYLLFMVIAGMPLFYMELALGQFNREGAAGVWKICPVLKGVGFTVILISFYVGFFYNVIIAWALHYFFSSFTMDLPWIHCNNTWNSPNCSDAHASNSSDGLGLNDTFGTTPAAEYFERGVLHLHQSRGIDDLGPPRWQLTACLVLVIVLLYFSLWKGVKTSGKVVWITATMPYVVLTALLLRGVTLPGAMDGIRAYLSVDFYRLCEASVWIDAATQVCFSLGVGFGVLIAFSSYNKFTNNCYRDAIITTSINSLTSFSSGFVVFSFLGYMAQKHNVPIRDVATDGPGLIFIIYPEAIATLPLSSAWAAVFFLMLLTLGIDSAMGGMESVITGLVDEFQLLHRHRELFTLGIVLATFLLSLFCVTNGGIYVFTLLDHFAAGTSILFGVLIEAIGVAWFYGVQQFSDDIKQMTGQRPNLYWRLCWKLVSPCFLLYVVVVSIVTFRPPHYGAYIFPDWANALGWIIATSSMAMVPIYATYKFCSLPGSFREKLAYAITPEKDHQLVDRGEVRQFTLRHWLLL
Sequence of 168 GPCRs (Q16602 23-461): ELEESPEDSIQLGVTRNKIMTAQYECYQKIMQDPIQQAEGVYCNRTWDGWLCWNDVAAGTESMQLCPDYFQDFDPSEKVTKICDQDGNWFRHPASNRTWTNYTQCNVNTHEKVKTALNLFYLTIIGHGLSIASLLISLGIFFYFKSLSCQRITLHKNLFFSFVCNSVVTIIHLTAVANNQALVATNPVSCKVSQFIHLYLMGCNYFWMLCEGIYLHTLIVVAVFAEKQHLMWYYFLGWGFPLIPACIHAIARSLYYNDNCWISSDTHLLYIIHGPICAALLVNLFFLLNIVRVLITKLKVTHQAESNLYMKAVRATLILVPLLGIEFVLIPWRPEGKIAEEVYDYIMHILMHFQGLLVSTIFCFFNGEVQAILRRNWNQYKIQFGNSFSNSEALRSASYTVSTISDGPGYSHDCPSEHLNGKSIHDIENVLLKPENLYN

As a reminder, the half-life is how long it takes for the measured level to halve. Usually IC50 stands for the concentration at which inhibition is half-maximal. Usually EC50 stands for the midpoint of the concentration-response curve. For `CNC(C)C(=O)c1ccc2c(c1)OCO2` (centres unmarked) [Methylone, 3,4-methylenedioxy-N-methylcathinone], the Reduction in immobility in data set [1] (15 mg/kg IP) is given as 99%; in data set [1] (30 mg/kg IP), 96%. Moreover, the “Antidepressant-like effect vs. vehicle” value in data set [1] (15 mg/kg PO, 2 hours before test) is reported as “significant antidepressant-like effect”. The “Reduced immobility vs. vehicle” value in data set [1] (Methylone 5 mg/kg IP after three prior doses of fluoxetine 10 mg/kg) turned out to be 62%; in data set [1] (Methylone alone 5 mg/kg IP (Example 8)) it was 71%. The Climbing behavior result was “significantly increased climbing behavior” in data set [1] (doses as worded) and “Climbing was only increased at the lowest dose of methylone” in data set [1] (doses as worded, listed as methylone). Also, the Swimming behavior entry in data set [1] (doses as worded) is “Mid and high doses of methylone significantly increased swimming”. Also, in data set [1] (four […] IP doses 20.5, 8.5, 4.5, 0.5 h before test), the “Antidepressant-like effect of multiple lower doses” value is listed as “significant antidepressant-like effects”. In addition, in data set [1] (single dose 5, 10, 15, 20 and 30 mg/kg IP, 30 min before test), the “Immobility vs. saline vehicle” value is on record as “significantly reduced immobility”. The half-life in data set [2] is 1 to 2 h. Moreover, the IC50 in data set [3] stood at 0.13 µM. Further, the EC50 in data set [4] is 4.79 µM. Besides, the “% Activity” value in data set [5] is reported as −2.2%.
